Measured values: patent US20230277505A1 (Arena Pharmaceuticals, Inc., priority 2003, published 2023)
Like-named read-outs stand apart in the source and are kept apart here.

Legend:
[1] = system: DOI-induced hypolocomotion in rats; assay: Attenuation of DOI-induced hypolocomotion in rats; assay type: in vivo, rat; details: 50 μmol/kg p.o. 60 min before DOI 0.3 mg/kg s.c.
Description: In this example, compounds of the invention, such as Compound 1 and Compound 26, were tested for inverse agonist activity by determining whether these compounds could attenuate DOI-induced hypolocomotion in rats in a novel environment. DOI is a potent 5HT2A/2C receptor agonist that crosses the blood-brain barrier.
Male Sprague-Dawley rats (Harlan, San Diego, Calif.) weighing between 200-300 g were used for all tests. Rats were housed three to four per cage. These rats were naïve to experimental testing and drug treatment. Rats were handled one to three days before testing to acclimate them to experimental manipulation. Rats were fasted overnight prior to testing.
(R)-DOI HCl (C11H16INO2·HCl) was obtained from Sigma-Aldrich, and was dissolved in 0.9% saline. Compounds of the invention were synthesized at Arena Pharmaceuticals Inc. and were dissolved in 100% PEG400. […]
The “Motor Monitor” (Hamilton-Kinder, Poway, Calif.) was used for all activity measurement. This apparatus recorded rears using infrared photobeams. […]
In determining the effects of compounds of the invention on DOI-induced hypoactivity, animals were first injected with vehicle or the compound of the invention (50 μmol/kg) in their home cages. […] 10 min after DOI administration, animals were placed into the activity apparatus and rearing activity was measured for 10 minutes.
Results (total rears over 10 minutes) were analyzed by t-test. […]

[2] = biological target: 5HT2A receptor (Macaca mulatta (Rhesus macaque), UniProt P50128); assay: Serotonin 5-HT2A receptor occupancy study in monkey (PET, 18F-altanserin); assay type: in vivo; details: iv
[3] = Plasma drug concentration in the PET occupancy study; assay type: in vivo, rhesus monkey; details: 0.5 mg/kg i.v.; after 8 hours
Description: The monkey was anesthetized by using ketamine (10 mg/kg) and was maintained using 0.7 to 1.25% isoflurane. Typically, the monkey had two i.v. lines, one on each arm. One i.v. line was used to administer the radioligand, while the other line was used to draw blood samples for pharmacokinetic data of the radioligand as well as the cold drugs. Generally, rapid blood samples were taken as the radioligand is administered which then taper out by the end of the scan. A volume of approximately 1 ml of blood was taken per time point, which was spun down, and a portion of the plasma was counted for radioactivity in the blood.
The results of both an 8 hour and 24 hour study are shown. The test compound was administered via i.v. infusion in 5.0 ml of 80% PEG400. For the 8 hour study, venous blood samples were drawn at 5 minutes post Compound 1 and 15 minutes before PET scan. For the 24 hour study, venous blood samples were drawn at 5 minutes post Compound 1 and 10 minutes before PET scan.

[4] = system: male Wistar rats; assay: Effect on delta power, sleep and wakefulness in rats (EEG/EMG); assay type: in vivo, rat; details: oral gavage
Description: In this example, the effect of Compounds of the Invention, such as Compound 1 and Compound 26, on sleep and wakefulness was compared to the reference drug zolpidem. Drugs were administered during the middle of the light period (inactivity period).
Briefly, four compounds of the invention, including Compound 1 (1.0 mg/kg) and Compound 26 (1.4 mg/kg), were tested for their effects on sleep parameters and were compared to zolpidem (5.0 mg/kg, Sigma, St. Louis, Mo.) and vehicle control (80% Tween 80, Sigma, St. Louis, Mo.). A repeated measures design was employed in which each rat was to receive seven separate dosings via oral gavage. The first and seventh dosings were vehicle and the second through sixth were the test compounds and zolpidem given in counter-balanced order. Since all dosings were administered while the rats were connected to the recording apparatus, 60% CO2/40% O2 gas was employed for light sedation during the oral gavage process. Rats appeared fully recovered within 60 seconds following the procedure. A minimum of three days elapsed between dosings. […] Dosing typically occurred between 13:15 and 13:45 using a 24 hour notation. All dosing solutions were made fresh on the day of dosing. Following each dosing, animals were continuously recorded until lights out the following day (˜30 hours).
Animals were housed in a temperature controlled recording room under a 12/12 light/dark cycle (lights on at 7:00 am) and had food and water available ad libitum. Room temperature (24+2° C.), humidity (50+20% relative humidity) and lighting conditions were monitored continuously via computer. Drugs were administered via oral gavage as described above, with a minimum of three days between dosings. Animals were inspected daily in accordance with NIH guidelines. […]
EEG and EMG data were scored visually in 10 second epochs for waking (W), REMS, NREMS. Scored data were analyzed and expressed as time spent in each state per half hour. Sleep bout length and number of bouts for each state were calculated in hourly bins. […]

[5] = 24 months of treatment; patients; cited from earlier work
[6] = glaucoma patients; cited from earlier work

In the case of `COc1ccc(NC(=O)Nc2ccc(Cl)cc2)cc1-c1c(Br)cnn1C` [Compound 1, 1-[3-(4-Bromo-2-methyl-2H-pyrazol-3-yl)-4-methoxy-phenyl]-3-(4-Chloro-phenyl)-urea], the “DOI-induced hypolocomotion (total rears over 10 minutes)” value [1] is reported as “attenuated DOI-induced hypolocomotion”, the receptor occupancy at 0.5 mg/kg ([2]; read-out: 5HT2A receptor occupancy, 0.5 mg/kg i.v., 8 hours following drug administration, cortical regions) is reported as about 90% and the receptor occupancy at 0.5 mg/kg ([2]; read-out: 5HT2A receptor occupancy, 0.5 mg/kg i.v., 24 hours post-injection) is reported as about 80%. For the same molecule, the “test drug concentrations in plasma samples” value [3] was “no measurable test drug concentrations”, the NREMS bout length ([4]; 1.0 mg/kg, second hour) was “significantly increased” and the REMS bout length ([4]; Compound 1 1.0 mg/kg, Compound 26 1.4 mg/kg, fourth hour) was “significantly increased”. For the same molecule, the “delta power during NREMS” value ([4]; Compound 1 1.0 mg/kg, Compound 26 1.4 mg/kg, second hour following dosing (15:00), vs vehicle) was “significantly increased”.
In the case of `COc1cccc(CCc2ccccc2OCC(CN(C)C)OC(=O)CCC(=O)O)c1` (stereo not drawn) [sarpogrelate], the “urinary albumin excretion level” value [5] is given as “significantly reduced” and the IOP [6] is given as “significantly lower”.
